Consider eight compounds from patent US4873243A, “Derivatives of 3-imino-pyridazine, process for obtaining them and pharmaceutical compositions containing them” (SANOFI, priority 1985, dated 1989).

The target of data set [1] is GABA post-synaptic receptor. Description: Displacement of tritiated GABA from its post-synaptic receptor (Enna and Snyder method), suspension of synaptic membrane. Conditions: in vitro, tritiated GABA 2.9 nM final concentration. In kind it is binding. On the procedure: The therapeutic activity of the products according to the invention has been studied.
The study was carried out in accordance with the method of ENNA and SNYDER (Brain Research 100, 81-97, 1975). The experiment was carried out in vitro in the presence of a suspension of synaptic membrane and tritiated GABA at a final concentration of 2.9 nM.
The results are expressed in Inhibit Concentration 50 (IC50), i.e. the micromolar concentration which inhibits 50% of the fixation of the GABA on its post-synaptic receptor.

Data set [2] has as its system reserpine-induced ptosis in the mouse. The data set is described as follows: Antagonism of reserpine-induced ptosis in the mouse. In kind it is in vivo. Conditions: 100 mg/kg intraperitoneal; reserpine 2 mg/kg intravenous at the same time; female mice; one hour after administration. Here is the method: The anti-depressant properties of the products according to the invention have been studied in the animal. The anti-depressant activity was assessed in the test of antagonism of reserpine-induced ptosis in the mouse.
The study was carried out on batches of 10 female mice weighing 20±1 g. The products to be studied were administered by the intraperitoneal route at the same time as the reserpine by the intravenous route at the dose of 2 mg/kg.
In parallel, a control batch received only the vehicle of administration of the product to be studied and the reserpine.
One hour after administration, the animals were observed individually. All the animals of the control batch presented ptosis. For the treated batches, the animals not presenting ptosis were counted and the percentage of the animals where the ptosis was antagonized were determined.

The subject of data set [3] is mouse. Description: Acute toxicity in the mouse. In kind it is in vivo. Conditions: 100 mg/kg intraperitoneal. The source says:
The products according to the invention may be administered by the oral route or by the injectable route.

Where [4] appears, read: read-out: IC50 (concentration which inhibits 50% of the fixation of the GABA on its post-synaptic receptor).

Counter-ions that a name gives are not always drawn. Like-named read-outs stand apart in the source and are kept apart here.

As to `Cc1cc(-c2ccccc2)nn(Cc2cc(O)no2)c1=N` [SR 95538, 2-[(3-hydroxy 5-isoxazolyl)methyl]-3-imino-4-methyl-6-phenyl-2,3-dihydro-pyridazine, hydrobromide], the IC50 in data set [1] (setting [4]) worked out at 1000 nM. Also, the “animals in which ptosis was antagonized (inhibits ptosis)” value in data set [2] amounted to 30%. In addition, in data set [3], the “sign of acute toxicity” value was “no sign of acute toxicity”.

Turning to `N=c1ccc(-c2ccccc2)nn1Cc1cc(O)no1` [SR 95812], the IC50 in data set [1] (listed as 95812, read-out: IC50 (concentration which inhibits 50% of the fixation of the GABA on its post-synaptic receptor)) is 1200 nM.

With `N=c1ccc(-c2ccccc2)nn1Cc1cc(O)no1` [SR 95884], the IC50 in data set [1] (listed as 95884, read-out: IC50 (concentration which inhibits 50% of the fixation of the GABA on its post-synaptic receptor)) amounted to 1800 nM.

As to `N=c1ccc(-c2ccc(Cl)cc2)nn1Cc1cc(O)ns1` [SR 95885, 2-[(3-hydroxy-5-isothiazolyl)methyl]-3-imino-6-(4-chloro-phenyl)-2,3-dihydro-pyridazine, hydrobromide], the IC50 in data set [1] (setting [4]) worked out at 150 nM.

Take `Cc1nn(Cc2cc(O)ns2)c(=N)cc1-c1ccccc1` [SR 95886]: in data set [1] (setting [4]), the IC50 is 6600 nM.

In the case of `N=c1ccc(-c2ccsc2)nn1Cc1cc(O)no1` [SR 95893], the IC50 in data set [1] (setting [4]) was found to be 1600 nM.

As for `N=c1c2ccccc2c(-c2ccccc2)nn1Cc1cc(O)no1` [SR 95894], in data set [1] (setting [4]), the IC50 amounted to 120 nM.

Regarding `N=c1ccc(-c2ccc3c(c2)OCO3)nn1Cc1cc(O)no1` [SR 95895], the IC50 in data set [1] (setting [4]) is 75 nM.
